In patent publication US12667106B2, “Stabilized mutants of quorum quenching lactonase and use thereof in treatment of pathogens” (priority 2019, dated 2026):

What was measured:
Erwinia amylovora [1] = type: in vivo; settings: field, 13 days post inoculation, FIG. 5C
Erwinia amylovora [2] = type: in vivo; settings: 6 days post inoculation, 4 ppm, growth chamber

For `CCn1cc(C(=O)O)c(=O)c2cc3c(cc21)OCO3` [oxolinic acid], the “inhibition of fire blight symptoms” value (Erwinia amylovora [1]) was 70% and the “inhibition of flower infection relative to untreated control” value (Erwinia amylovora [2]) was 45%.
